Experimental data taken from ChEMBL document CHEMBL1127939, “Non-peptide fibrinogen receptor antagonists. 3. design and discovery of a centrally constrained inhibitor” (Bioorg Med Chem Lett, 1994).
The source made the active and inactive calls. The rule behind the calls is not given here.

Experiments:
[1] = biological target: Integrin alpha-5/beta-1 (Homo sapiens) (UniProt P05556+P08648); assay: Inhibition of human umbilical vein endothelial cell (HUVEC) adhesion to fibronectin at 300 uM (No inhibition); format: cell-based
HUVEC = assay: Inhibition of human umbilical vein endothelial cell (HUVEC) adhesion to vitronectin at 300 uM (No inhibition); format: cell-based
Canis familiaris [2] = assay: Ex vivo percent inhibition of platelet aggregation at oral dose of 4 mg/kg after 480 min; format: functional; conditions: Canis lupus familiaris, 8 h
Canis familiaris [3] = assay: Ex vivo percent inhibition of platelet aggregation at oral dose of 2 mg/kg after 140 min; format: functional; conditions: Canis lupus familiaris
[4] = biological target: Integrin alpha-IIb/beta-3 (Homo sapiens) (UniProt P05106+P08514); assay: Inhibition of human umbilical vein endothelial cell (HUVEC) adhesion to fibrinogen at 300 uM (No inhibition); format: cell-based

inhibition [1]: inactive
inhibition [4]: inactive
SMILES: O=C(O)CCNC(=O)c1ccc2c(c1)C(=O)N(CCC1CCNCC1)C2
inhibition (HUVEC): inactive
inhibition in vivo at 4 mg/kg (Canis familiaris [2]): 90%
inhibition in vivo at 2 mg/kg (Canis familiaris [3]): 65%
